Test results published in US8785653B2, “(3-aryl-1H-1,2,4-triazol-5-yl)-linked heterocycle derivatives” (H. Lundbeck A/S, priority 2009, dated 2014).

target: T1, PDE10A enzyme (Homo sapiens, UniProt Q9Y233); test: PDE10A inhibition assay; assay type: biochemical; settings: 3H-labelled cAMP substrate 5 nM, SPA beads, one hr at room temperature
T1 construct: made in house; host or cells: E. coli BL21(DE3)
Procedure: Active PDE10A enzyme is prepared in a number of ways for use in PDE assays (Loughney, K. et al. Gene 1999, 234, 109-117; Fujishige, K. et al. Eur J Biochem. 1999, 266, 1118-1127 and Soderling, S. et al. Proc. Natl. Acad. Sci. 1999, 96, 7071-7076). PDE10A can be expressed as full-length proteins or as truncated proteins, as long as they express the catalytic domain. PDE10A can be prepared in different cell types, for example insect cells or E. coli. An example of a method to obtain catalytically active PDE10A is as follows: The catalytic domain of human PDE10A (amino acids 440-779 from the sequence with accession number NP 006652) is amplified from total human brain total RNA by standard RT-PCR and is cloned into the BamH1 and Xho1 sites of the pET28a vector (Novagen). Expression in coil is performed according to standard protocols. Briefly, the expression plasmids are transformed into the BL21(DE3) E. coli strain, and 50 mL cultures inoculated with the cells allowed to grow to an OD600 of 0.4-0.6 before protein expression is induced with 0.5mM IPTG. Following induction, the cells are incubated overnight at room temperature, after which the cells are collected by centrifugation. Cells expressing PDE10A are resuspended in 12 mL (50 mM TRIS-HCl-pH8.0, 1 mM MgCl2 and protease inhibitors). The cells are lysed by sonication, and after all cells are lysed, TritonX100 is added according to Novagen protocols.
A PDE10A assay may for example, be performed as follows: The assay is performed in 60 uL samples containing a fixed amount of the relevant PDE enzyme (sufficient to convert 20-25% of the cyclic nucleotide substrate), a buffer (50 mM HEPES7.6; 10 mM MgCl2; 0.02% Tween20), 0.1 mg/mI BSA, 225 pCi of ^3H-labelled cyclic nucleotide substrate, tritium labeled cAMP to a final concentration of 5 nM and varying amounts of inhibitors. Reactions are initiated by addition of the cyclic nucleotide substrate, and reactions are allowed to proceed for one hr at room temperature before being terminated through mixing with 15 uL 8 mg/mL yttrium silicate SPA beads (Amersham). The beads are allowed to settle for one hr in the dark before the plates are counted in a Wallac 1450 Microbeta counter. The measured signal can be converted to activity relative to an uninhibited control (100%) and IC50 values can be calculated using the XIfit extension to EXCEL.

T1 sequence (Q9Y233 716-1055): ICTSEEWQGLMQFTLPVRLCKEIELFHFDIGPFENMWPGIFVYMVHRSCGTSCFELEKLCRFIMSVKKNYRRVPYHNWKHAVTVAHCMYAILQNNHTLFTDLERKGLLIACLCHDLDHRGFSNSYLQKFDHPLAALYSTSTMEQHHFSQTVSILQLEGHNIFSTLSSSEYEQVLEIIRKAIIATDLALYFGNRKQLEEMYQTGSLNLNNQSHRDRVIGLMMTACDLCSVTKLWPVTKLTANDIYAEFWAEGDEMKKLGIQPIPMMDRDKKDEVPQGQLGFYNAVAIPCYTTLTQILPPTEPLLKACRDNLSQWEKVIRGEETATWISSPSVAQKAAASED

Point of comparison: `Cc1cccc2nc(CCc3nc(-c4ccccc4)nn3C)nn12` [5-Methyl-2-[2-(2-methyl-5-phenyl-2H-[1,2,4]triazol-3-yl)-ethyl]-[1,2,4]triazolo[1,5-a]pyridine], IC50 0.22 µM. Against it:
- COc1ccc(C)n2nc(CCc3nc(-c4ccccc4)nn3C(C)C)nc12 [2-[2-(2-Isopropyl-5-phenyl-2H-[1,2,4]triazol-3-yl)-ethyl]-8-methoxy-5-methyl-[1,2,4]triazolo[1,5-a]pyridine] — 3.9-fold lower, 0.056 µM
- Cc1ncc(C)n2nc(CCc3nc(-c4ccco4)n(C)n3)nc12 [2-[2-(5-Furan-2-yl-1-methyl-1H-[1,2,4]triazol-3-yl)-ethyl]-5,8-dimethyl-[1,2,4]triazolo[1,5-a]pyrazine] — 5.8-fold lower, 0.038 µM
- Cc1ncc(C)n2nc(CCc3nc(-c4ccco4)nn3C)nc12 [2-[2-(5-Furan-2-yl-2-methyl-2H-[1,2,4]triazol-3-yl)-ethyl]-5,8-dimethyl-[1,2,4]triazolo[1,5-a]pyrazine] — 48-fold lower, 0.0046 µM
- Cc1ncc(C)n2nc(/C=C/c3nc(-c4ccco4)n(C)n3)nc12 [2-[(E)-2-(5-Furan-2-yl-1-methyl-1H-[1,2,4]triazol-3-yl)-vinyl]-5,8-dimethyl-[1,2,4]triazolo[1,5-a]pyrazine] — 3.7-fold lower, 0.06 µM
- COCCn1nc(-c2ccccc2)nc1CCc1nc2c(C)ncc(C)n2n1 [2-{2-[2-(2-Methoxy-ethyl)-5-phenyl-2H-[1,2,4]triazol-3-yl]-ethyl}-5,8-dimethyl-[1,2,4]triazolo[1,5-a]pyrazine] — 16-fold lower, 0.014 µM
- Cc1ncc(C)n2nc(CCc3nc(-c4ccccc4)nn3CCO)nc12 [2-{5-[2-(5,8-Dimethyl-[1,2,4]triazolo[1,5-a]pyrazin-2-yl)-ethyl]-3-phenyl-[1,2,4]triazol-1-yl}-ethanol] — 3.2-fold lower, 0.069 µM
- COc1ccc(C)n2nc(CCc3nc(-c4ccccc4)nn3CCO)nc12 [2-{5-[2-(8-Methoxy-5-methyl-[1,2,4]triazolo[1,5-a]pyridin-2-yl)-ethyl]-3-phenyl-[1,2,4]triazol-1-yl}-ethanol] — 9.6-fold lower, 0.023 µM
- CCc1ccc(C)n2nc(CCc3nc(-c4ccccc4)cn3CCCN)nc12 [3-{2-[2-(8-Ethyl-5-methyl-[1,2,4]triazolo[1,5-a]pyridin-2-yl)-ethyl]-4-phenyl-imidazol-1-yl}-propylamine] — within 1.5-fold, 0.15 µM
- Cc1ncc(C)n2nc(CCc3nc(-c4ccccc4)nn3CCC#N)nc12 [3-{5-[2-(5,8-Dimethyl-[1,2,4]triazolo[1,5-a]pyrazin-2-yl)-ethyl]-3-phenyl-[1,2,4]triazol-1-yl}-propionitrile] — 8.8-fold lower, 0.025 µM
- Cc1ncc(C)n2nc(CCc3nc(-c4ccccc4)nn3CCCN)nc12 [3-{5-[2-(5,8-Dimethyl-[1,2,4]triazolo[1,5-a]pyrazin-2-yl)-ethyl]-3-phenyl-[1,2,4]triazol-1-yl}-propylamine] — 2.2-fold lower, 0.1 µM
- CCc1ccc(C)n2nc(CCc3nc(-c4ccccc4)nn3CCC#N)nc12 [3-{5-[2-(8-Ethyl-5-methyl-[1,2,4]triazolo[1,5-a]pyridin-2-yl)-ethyl]-3-phenyl-[1,2,4]triazol-1-yl}-propionitrile] — 16-fold lower, 0.014 µM
- COc1ccc(C)n2nc(CCc3nc(-c4ccccc4)nn3CCC#N)nc12 [3-{5-[2-(8-Methoxy-5-methyl-[1,2,4]triazolo[1,5-a]pyridin-2-yl)-ethyl]-3-phenyl-[1,2,4]triazol-1-yl}-propionitrile] — 4.9-fold lower, 0.045 µM
- Cc1cc(C)n2nc(CCc3nc(-c4ccccc4)nn3C)nc2n1 [5,7-Dimethyl-2-[2-(2-methyl-5-phenyl-2H-[1,2,4]triazol-3-yl)-ethyl]-[1,2,4]triazolo[1,5-a]pyrimidine] — 3.7-fold lower, 0.059 µM
- Cc1ncc(C)n2nc(CSc3nc(-c4ccccc4)n[nH]3)nc12 [5,8-Dimethyl-2-(5-phenyl-2H-[1,2,4]triazol-3-ylsulfanylmethyl)-[1,2,4]triazolo[1,5-a]pyrazine] — 4.2-fold lower, 0.053 µM
- Cc1ncc(C)n2nc(CCc3nc(-c4ncco4)nn3C)nc12 [5,8-Dimethyl-2-[2-(2-methyl-5-oxazol-2-yl-2H-[1,2,4]triazol-3-yl)-ethyl]-[1,2,4]triazolo[1,5-a]pyrazine] — 1.8-fold lower, 0.12 µM
- Cc1ncc(C)n2nc(CCc3nc(-c4ccccc4)nn3C)nc12 [5,8-Dimethyl-2-[2-(2-methyl-5-phenyl-2H-[1,2,4]triazol-3-yl)-ethyl]-[1,2,4]triazolo[1,5-a]pyrazine] — 15-fold lower, 0.015 µM
- Cc1ccc(C)n2nc(CCc3nc(-c4ccccc4)nn3C)nc12 [5,8-Dimethyl-2-[2-(2-methyl-5-phenyl-2H-[1,2,4]triazol-3-yl)-ethyl]-[1,2,4]triazolo[1,5-a]pyridine] — 33-fold lower, 0.0067 µM
- Cc1cnc(C)n2nc(CCc3nc(-c4ccccc4)nn3C)nc12 [5,8-Dimethyl-2-[2-(2-methyl-5-phenyl-2H-[1,2,4]triazol-3-yl)-ethyl]-[1,2,4]triazolo[1,5-c]pyrimidine] — 6.1-fold lower, 0.036 µM
- Cc1ncc(C)n2nc(CCc3nc(-c4ccccn4)nn3C)nc12 [5,8-Dimethyl-2-[2-(2-methyl-5-pyridin-2-yl-2H-[1,2,4]triazol-3-yl)-ethyl]-[1,2,4]triazolo[1,5-a]pyrazine] — 5.6-fold lower, 0.039 µM
- Cc1ncc(C)n2nc(CCc3nc(-c4cccnc4)nn3C)nc12 [5,8-Dimethyl-2-[2-(2-methyl-5-pyridin-3-yl-2H-[1,2,4]triazol-3-yl)-ethyl]-[1,2,4]triazolo[1,5-a]pyrazine] — 2-fold lower, 0.11 µM
- Cc1ncc(C)n2nc(CCc3nc(-c4ncccn4)nn3C)nc12 [5,8-Dimethyl-2-[2-(2-methyl-5-pyrimidin-2-yl-2H-[1,2,4]triazol-3-yl)-ethyl]-[1,2,4]triazolo[1,5-a]pyrazine] — 4.2-fold lower, 0.053 µM
- Cc1ncc(C)n2nc(CCc3nc(-c4nccs4)nn3C)nc12 [5,8-Dimethyl-2-[2-(2-methyl-5-thiazol-2-yl-2H-[1,2,4]triazol-3-yl)-ethyl]-[1,2,4]triazolo[1,5-a]pyrazine] — 6.1-fold lower, 0.036 µM
- Cc1ncc(C)n2nc(CCc3nc(-c4cscn4)nn3C)nc12 [5,8-Dimethyl-2-[2-(2-methyl-5-thiazol-4-yl-2H-[1,2,4]triazol-3-yl)-ethyl-]-[1,2,4]triazolo[1,5-a]pyrazine] — 8.8-fold lower, 0.025 µM
- Cc1ncc(C)n2nc(CCc3nc(-c4cncs4)nn3C)nc12 [5,8-Dimethyl-2-[2-(2-methyl-5-thiazol-5-yl-2H-[1,2,4]triazol-3-yl)-ethyl]-[1,2,4]triazolo[1,5-a]pyrazine] — 8.5-fold lower, 0.026 µM
- Cc1ncc(C)n2nc(CCc3nc(-c4cccs4)nn3C)nc12 [5,8-Dimethyl-2-[2-(2-methyl-5-thiophen-2-yl-2H-[1,2,4]triazol-3-yl)-etnyl]-[1,2,4]triazolo[1,5-a]pyrazine] — 39-fold lower, 0.0056 µM
- Cc1ncc(C)n2nc(CCc3nc(-c4ccsc4)nn3C)nc12 [5,8-Dimethyl-2-[2-(2-methyl-5-thiophen-3-yl-2H-[1,2,4]triazol-3-yl)-ethyl]-[1,2,4]triazolo[1,5-a]pyrazine] — 42-fold lower, 0.0053 µM
- Cc1csc(-c2nc(CCc3nc4c(C)ncc(C)n4n3)n(C)n2)n1 [5,8-Dimethyl-2-{2-[2-methyl-5-(4-methyl-thiazol-2-yl)-2H-[1,2,4]triazol-3-yl]-ethyl}-[1,2,4]triazolo[1,5-a]pyrazine] — 2.9-fold lower, 0.076 µM
- Cc1cnc(-c2nc(CCc3nc4c(C)ncc(C)n4n3)n(C)n2)s1 [5,8-Dimethyl-2-{2-[2-methyl-5-(5-methyl-thiazol-2-yl)-2H-[1,2,4]triazol-3-yl]-ethyl}-[,2,4]triazolo[1,5-a]pyrazine] — 1.8-fold lower, 0.12 µM
- Cc1cccc2nc(CSc3nc(-c4ccccc4)n[nH]3)nn12 [5-Methyl-2-(5-phenyl-2H-[1,2,4]triazol-3-ylsulfanylmethyl)-[1,2,4]triazolo[1,5-a]pyridine] — within 1.5-fold, 0.2 µM
